Results on five compounds are retold here after US6593365B1, “Diflunisal esters and related compounds” (The University of Queensland, priority 1997, dated 2003).

This series concerns in-situ perfused rat liver. The series can be described thus: In-situ rat liver perfusion bolus studies, moments and dispersion model analysis (Example 3). The class given is in vitro ADME, Sprague-Dawley rats. The note with it: n = 3, Mean S.E.; for RN (efficiency number) / a (dispersion model): determined using equation 5 & 6; for CV^2 (normalized variance) / F (hepatic availability) / MTT (mean transit time): moments analysis, bolus, 30 mL/min; for CV^2 (normalized variance) / F (hepatic availability) / MTT (mean transit time) / Efflux rate coefficient (k2) / Elimination rate coefficient (kel) / Influx rate coefficient (k1): 2% BSA perfusate; for Efflux rate coefficient (k2) / Elimination rate coefficient (kel) / Influx rate coefficient (k1): two-compartment dispersion model fitting. On the procedure:
Mature female Sprague-Dawley rats were obtained from the University of Queensland Animal Breeding Facility and weighed between 180-270 grams. The animals were given access to a standard laboratory diet prior to experiment. Rats were anaesthetised by interperitoneal injection of pentobarbital sodium (60 mg/kg, Boehringer Ingelhein). […] The bile duct was cannulated with PE10 (Clay Adams, New Jersey). 0.025 gm/L taurocholic acid (Sigma Co., USA.) was dissolved in perfusate to stimulate bile production. The portal vein was then cannulated using a 16 G intravenous catheter and the liver was perfused via this cannula with 2% BSA Krebs-Henseleit bicarbonate buffer (pH 7.4) and oxygenated using a silastic tubing lung ventilated with carbogen (95% O2/5% CO2). The perfusion system used was non-recirculating and employed a peristaltic pump (Cole-Parmer, Illinois).
The animal was placed in a temperature controlled perfusion cabinet at 37° C. Liver viability was assessed by oxygen consumption, bile flow, diflunisal esters' extraction and macroscopic appearance.
Perfusions were made at 30 mL/min in each liver. After a 10 minute perfusion stabilization period, injectate (50 μL) containing Evans Blue (3 mg/mL) and [^3H]-water in a saturated solution of the particular O-acyl diflunisal ester or pregenerated diflunisal (which was injected as parent compound) in 2% BSA Krebs-Henseleit buffer, was injected into the liver with outlet samples collected via a fraction collector over one minute.
Aliquots (100 μL) of pooled perfusate samples were taken for Evans Blue spectrophotometric analysis and [^3H]-water scintillation counting before adjusting pH. These pooled samples were then acidified to pH 2.0 by addition of 1 M HCl and extracted into 2.5 volumes of ether. […] The ether fraction was then removed and reduced to approximately 100 μL by evaporation under air and prepared as before for HPLC analysis. A known concentration of each buffer solution of ester was concurrently extracted and assayed with the perfusate samples to assess the degree of spontaneous hydrolysis occurring over the duration of the extraction procedure. This non-enzymatic hydrolysis was converted for in the analysis. The total recovery of diflunisal esters extracted using this technique was >90%.
The F, MTT and CV^2 for the diflunisal esters (or pregenerated DF) and the reference solutes (EB and [^3H]-water) were determined from the outflow concentration versus time profile using equation (1)-(4), with the assistance of the Moments Calculator 2.2 program for Macintosh computer developed by Robert Purves (Purves RD, 1994, J. Pharm. Sci. 83 202-205). [formula] [formula]
where Q is the perfusate flow rate, D is the dose of diflunisal esters administered. The area under the concentration-time curve (AUC) and the first moment curve (AUMC) were estimated by the trapezoidal rule integration with appropriate modification for tail (Mellick et al., 1996, submitted for publication). [formula]
The moment data was further examined using the dispersion model of hepatic elimination which defines F of an extracted solute by the equation (Roberts et al., 1990, J. Pharmacokin. Biopharm. 18 209-234): [formula]
a={square root over (1+4RNDN)} (6)
DN is the dispersion number which describes the spread of solute residence times in the liver following bolus input and equal half the normalized variance for a non-extracted reference indicator [formula]
RN is the efficiency number which characterises the elimination of solute by the liver and is defined by the equation: [formula]
(Gillette, 1971, Ann. N. Acad. Sci. 179 43-61)), and Q is the perfusate flow rate. If F for a solute and the CV^2 for a non-extracted reference solute (eg. EB) are known, we can solve for “a” using equation (5) and then for “RN” using equation (6).
The dispersion model expressions (Roberts et al., 1990) for MTT and CV^2 are presented in equations (8) and (9). [formula] [formula] […]

Each structure is given as a SMILES string. Marks after values point to notes of the source that are not given here.

On to `CCCCC(=O)Oc1ccc(-c2ccc(F)cc2F)cc1C(=O)O` [Compound C5D, n-pentanoyldiflunisal], for which the “RN (efficiency number)” value is 1.32 ± 0.03, the “a (dispersion model)” value was determined as 1.77 ± 0.02, the “CV^2 (normalized variance)” value is 1.02 ± 0.33 and the “F (hepatic availability)” value stood at 0.38 ± 0.02. Also, the “MTT (mean transit time)” value came to 6.62 ± 0.84 s, the “RN/fub (removal of unbound solute)” value is 11.04 ± 0.39, the “Efflux rate coefficient (k2)” value is 0.14 ± 0.07 s⁻¹ and the “Elimination rate coefficient (kel)” value turned out to be 0.18 ± 0.06 s⁻¹. The “Influx rate coefficient (k1)” value was found to be 0.51 ± 0.16 s⁻¹.

For `CCCC(=O)Oc1ccc(-c2ccc(F)cc2F)cc1C(=O)O` [Compound C4D, n-butanoyldiflunisal], the “RN (efficiency number)” value was determined as 1.56 ± 0.02, the “a (dispersion model)” value is given as 1.87 ± 0.01, the “CV^2 (normalized variance)” value came to 1.01 ± 0.18 and the “F (hepatic availability)” value is 0.34 ± 0.01. Besides, the “MTT (mean transit time)” value came to 7.73 ± 0.99 s, the “RN/fub (removal of unbound solute)” value came out at 11.17 ± 0.38, the “Efflux rate coefficient (k2)” value came out at 0.08 ± 0.04 s⁻¹ and the “Elimination rate coefficient (kel)” value was 0.16 ± 0.07 s⁻¹. The “Influx rate coefficient (k1)” value was found to be 0.41 ± 0.12 s⁻¹.

Take `CC(=O)Oc1ccc(-c2ccc(F)cc2F)cc1C(=O)O` [Compound C2D, acetyldiflunisal]: the “RN (efficiency number)” value was 2.58 ± 0.02, the “a (dispersion model)” value is 2.26 ± 0.02^c, the “CV^2 (normalized variance)” value came to 0.70 ± 0.19 and the “F (hepatic availability)” value stood at 0.21 ± 0.03. The “MTT (mean transit time)” value was 10.36 ± 2.31 s, the “RN/fub (removal of unbound solute)” value turned out to be 9.57 ± 0.37, the “Efflux rate coefficient (k2)” value was 0.25 ± 0.03 s⁻¹ and the “Elimination rate coefficient (kel)” value came to 0.18 ± 0.02 s⁻¹. For the same compound, the “Influx rate coefficient (k1)” value turned out to be 1.20 ± 0.11 s⁻¹. Further, the “RN/fub (removal of unbound solute)” value (listed as acetyl) is reported as 9.57.

On to `CCCCCC(=O)Oc1ccc(-c2ccc(F)cc2F)cc1C(=O)O` [Compound C6D, n-hexanoyldiflunisal], for which the “RN (efficiency number)” value is given as 1.32 ± 0.03, the “a (dispersion model)” value is on record as 1.77 ± 0.03, the “CV^2 (normalized variance)” value turned out to be 1.15 ± 0.48 and the “F (hepatic availability)” value came to 0.38 ± 0.04. The “MTT (mean transit time)” value was determined as 6.19 ± 0.95 s, the “RN/fub (removal of unbound solute)” value turned out to be 16.50 ± 0.22, the “Efflux rate coefficient (k2)” value is 0.06 ± 0.03 s⁻¹ and the “Elimination rate coefficient (kel)” value came out at 0.15 ± 0.03 s⁻¹. In addition, the “Influx rate coefficient (k1)” value was 0.63 ± 0.24 s⁻¹. Moreover, the “RN/fub (removal of unbound solute)” value (listed as hexanoyl) is listed as 16.50.

With `O=C(O)c1cc(-c2ccc(F)cc2F)ccc1O` [DF, 2′,4′-difluoro-4-hydroxy-3-biphenylcarboxylic acid, reference compound], the “a (dispersion model)” value is 1.33 ± 0.01, the “CV^2 (normalized variance)” value amounted to 0.99 ± 0.27, the “MTT (mean transit time)” value was determined as 6.80 ± 0.94 s and the “RN/fub (removal of unbound solute)” value was found to be 9.51 ± 0.18. Besides, the “Efflux rate coefficient (k2)” value is 0.02 ± 0.01 s⁻¹, the “Elimination rate coefficient (kel)” value is 0.06 ± 0.01 s⁻¹ and the “Influx rate coefficient (k1)” value is 0.18 ± 0.03^b sec^−1.
